Laboratory results from the NIST ThermoML archive (doi:10.1016/j.jct.2011.08.019).
Several values for one entry are separate records, joined by “and”; a condition that tells them apart may be missing. Equal values may be shown once. Numbers after ± are expanded uncertainties.

Assay: molar heat capacity at constant pressure
Settings: 101.33 kPa, Liquid, Small sample (50 mg) DSC

Structure (SMILES)	molar heat capacity at constant pressure (328.15 K)	molar heat capacity at constant pressure (333.15 K)	molar heat capacity at constant pressure (338.15 K)	molar heat capacity at constant pressure (343.15 K)	molar heat capacity at constant pressure (348.15 K)	molar heat capacity at constant pressure (353.15 K)	molar heat capacity at constant pressure (358.15 K)	molar heat capacity at constant pressure (363.15 K)	molar heat capacity at constant pressure (368.15 K)	molar heat capacity at constant pressure (373.15 K)	molar heat capacity at constant pressure (378.15 K)	molar heat capacity at constant pressure (383.15 K)	molar heat capacity at constant pressure (388.15 K)	molar heat capacity at constant pressure (393.15 K)	molar heat capacity at constant pressure (398.15 K)	molar heat capacity at constant pressure (403.15 K)	molar heat capacity at constant pressure (408.15 K)	molar heat capacity at constant pressure (413.15 K)	molar heat capacity at constant pressure (418.15 K)	molar heat capacity at constant pressure (423.15 K)	other results
CCCCCCCCCCCCCC[P+](CCCCCC)(CCCCCC)CCCCCC.N#C[N-]C#N [tetradecyl(trihexyl)phosphonium dicyanamide]	1089.3 ± 110 J/K/mol and 1086 ± 110 J/K/mol and 1084.4 ± 110 J/K/mol	1094.3 ± 110 J/K/mol and 1099.2 ± 110 J/K/mol and 1095.4 ± 110 J/K/mol	1105.3 ± 110 J/K/mol and 1109.1 ± 110 J/K/mol and 1106.9 ± 110 J/K/mol	1114.6 ± 110 J/K/mol and 1119.6 ± 110 J/K/mol and 1116.8 ± 110 J/K/mol	1124.5 ± 110 J/K/mol and 1129.5 ± 110 J/K/mol and 1127.3 ± 110 J/K/mol	1135 ± 110 J/K/mol and 1140.5 ± 120 J/K/mol and 1137.2 ± 110 J/K/mol	1145.4 ± 120 J/K/mol and 1150.4 ± 120 J/K/mol and 1147.6 ± 120 J/K/mol	1155.3 ± 120 J/K/mol and 1160.3 ± 120 J/K/mol	1164.1 ± 120 J/K/mol and 1169.1 ± 120 J/K/mol and 1165.2 ± 120 J/K/mol	1172.9 ± 120 J/K/mol and 1177.9 ± 120 J/K/mol and 1173.5 ± 120 J/K/mol	1180.6 ± 120 J/K/mol and 1186.1 ± 120 J/K/mol and 1190.5 ± 120 J/K/mol	1188.9 ± 120 J/K/mol and 1194.4 ± 120 J/K/mol and 1194.9 ± 120 J/K/mol	1197.7 ± 120 J/K/mol and 1203.2 ± 120 J/K/mol and 1204.8 ± 120 J/K/mol	1205.9 ± 120 J/K/mol and 1212 ± 120 J/K/mol and 1214.2 ± 120 J/K/mol	1213.6 ± 120 J/K/mol and 1219.7 ± 120 J/K/mol and 1220.2 ± 120 J/K/mol	1221.3 ± 120 J/K/mol and 1226.8 ± 120 J/K/mol and 1227.9 ± 120 J/K/mol	1227.4 ± 120 J/K/mol and 1233.4 ± 120 J/K/mol and 1234 ± 120 J/K/mol	1234.5 ± 120 J/K/mol and 1241.1 ± 130 J/K/mol and 1244.4 ± 130 J/K/mol	–	–	molar heat capacity at constant pressure (313.15 K): 1060.2 ± 110 J/K/mol and 1065.1 ± 110 J/K/mol and 1061.3 ± 110 J/K/mol; molar heat capacity at constant pressure (318.15 K): 1065.7 ± 110 J/K/mol and 1070.6 ± 110 J/K/mol and 1067.3 ± 110 J/K/mol; molar heat capacity at constant pressure (323.15 K): 1075.6 ± 110 J/K/mol and 1080 ± 110 J/K/mol and 1076.1 ± 110 J/K/mol
CCCC[P+](C)(CCCC)CCCC.COS(=O)(=O)[O-] [tributylmethylphosphonium methyl sulfate]	–	–	–	668.1 ± 68 J/K/mol and 660.8 ± 67 J/K/mol	672 ± 68 J/K/mol and 665.4 ± 67 J/K/mol	676.3 ± 68 J/K/mol and 669.7 ± 68 J/K/mol	681.2 ± 69 J/K/mol and 674.3 ± 68 J/K/mol	685.8 ± 69 J/K/mol and 678.9 ± 69 J/K/mol	690.4 ± 70 J/K/mol and 683.8 ± 69 J/K/mol	695.3 ± 70 J/K/mol and 687.4 ± 69 J/K/mol	698.3 ± 70 J/K/mol and 692.4 ± 70 J/K/mol	703.2 ± 71 J/K/mol and 697.3 ± 70 J/K/mol	707.2 ± 71 J/K/mol and 702.2 ± 71 J/K/mol	711.1 ± 72 J/K/mol and 705.5 ± 71 J/K/mol	714.4 ± 72 J/K/mol and 711.1 ± 72 J/K/mol	715 ± 72 J/K/mol and 715.4 ± 72 J/K/mol	720 ± 73 J/K/mol and 718.6 ± 73 J/K/mol	726.2 ± 73 J/K/mol and 721.3 ± 73 J/K/mol	729.2 ± 74 J/K/mol and 723.9 ± 73 J/K/mol	733.1 ± 74 J/K/mol and 728.8 ± 74 J/K/mol	molar heat capacity at constant pressure (428.15 K): 736.4 ± 74 J/K/mol and 732.4 ± 74 J/K/mol; molar heat capacity at constant pressure (433.15 K): 738.4 ± 75 J/K/mol and 737.4 ± 74 J/K/mol; molar heat capacity at constant pressure (438.15 K): 743.3 ± 75 J/K/mol and 741.6 ± 75 J/K/mol; molar heat capacity at constant pressure (443.15 K): 745.9 ± 75 J/K/mol and 744.6 ± 75 J/K/mol; molar heat capacity at constant pressure (448.15 K): 748.9 ± 76 J/K/mol and 747.6 ± 76 J/K/mol; molar heat capacity at constant pressure (453.15 K): 751.8 ± 76 J/K/mol and 750.8 ± 76 J/K/mol; molar heat capacity at constant pressure (458.15 K): 754.4 ± 76 J/K/mol and 754.1 ± 76 J/K/mol; molar heat capacity at constant pressure (463.15 K): 757.4 ± 76 J/K/mol and 756.1 ± 76 J/K/mol
CCCCCCCCCCCCCC[P+](CCCCCC)(CCCCCC)CCCCCC.O=S(=O)([N-]S(=O)(=O)C(F)(F)F)C(F)(F)F	1373.7 ± 140 J/K/mol and 1363 ± 140 J/K/mol and 1359.9 ± 140 J/K/mol	1370.6 ± 140 J/K/mol [middle of 4 runs]	1375.2 ± 140 J/K/mol [middle of 4 runs]	1381.3 ± 140 J/K/mol [middle of 4 runs]	1390.5 ± 140 J/K/mol [middle of 4 runs]	1400.4 ± 140 J/K/mol [middle of 4 runs]	1410.4 ± 140 J/K/mol and 1399.7 ± 140 J/K/mol and 1395.1 ± 140 J/K/mol	1419.5 ± 140 J/K/mol [middle of 4 runs]	1428.7 ± 140 J/K/mol and 1420.3 ± 140 J/K/mol and 1426.4 ± 140 J/K/mol	1439.4 ± 150 J/K/mol [middle of 4 runs]	1445.5 ± 150 J/K/mol [middle of 4 runs]	1454.7 ± 150 J/K/mol [middle of 4 runs]	1462.3 ± 150 J/K/mol [middle of 4 runs]	1470 ± 150 J/K/mol [middle of 4 runs]	1479.9 ± 150 J/K/mol [middle of 4 runs]	1487.5 ± 150 J/K/mol and 1478.4 ± 150 J/K/mol and 1469.2 ± 150 J/K/mol	1494.4 ± 150 J/K/mol [middle of 4 runs]	1501.3 ± 150 J/K/mol [middle of 4 runs]	1508.9 ± 150 J/K/mol [middle of 4 runs]	1516.6 ± 150 J/K/mol [middle of 4 runs]	molar heat capacity at constant pressure (428.15 K): 1521.9 ± 150 J/K/mol [middle of 4 runs]; molar heat capacity at constant pressure (433.15 K): 1533.4 ± 150 J/K/mol and 1519.6 ± 150 J/K/mol and 1509.7 ± 150 J/K/mol; molar heat capacity at constant pressure (438.15 K): 1541 ± 160 J/K/mol [middle of 4 runs]; molar heat capacity at constant pressure (443.15 K): 1544.8 ± 160 J/K/mol [middle of 4 runs]; molar heat capacity at constant pressure (448.15 K): 1548.6 ± 160 J/K/mol [middle of 4 runs]; molar heat capacity at constant pressure (453.15 K): 1557.8 ± 160 J/K/mol [middle of 4 runs]; molar heat capacity at constant pressure (458.15 K): 1561.6 ± 160 J/K/mol [middle of 4 runs]; molar heat capacity at constant pressure (463.15 K): 1567.7 ± 160 J/K/mol [middle of 4 runs]
